Paper PMC4503722, “Novel Phenotypic Outcomes Identified for a Public Collection of Approved Drugs from a Publicly Accessible Panel of Assays” (PLoS ONE, 2015)
Where two headings read alike, the source gives them in different places.

Assays:
[1] = FAERS, ref [45], cited from earlier work; for # of Specific AE Occurrence With Drug A With Drug B: with methotrexate; for # of Specific AE Occurrence With Drug A Without Drug B: without methotrexate
INS-1E cells [2] = assay type: cell-based, rat; conditions: 0.1 mM glucose; for 0.1mMGluc_INS1E SecretionMod Act IC50/EC50: assay number 9
[3] = system: tonic K+ channel activity in INS-1E cells; test: cells; assay type: cell-based, rat; conditions: 0.1 mM glucose; for 0.1mMGluc_INS1E FluxOR IC50/EC50: assay number 10
HeLa cells = test: cells; assay type: cell-based; conditions: for Hela CellCycMod PI 2N IC50/EC50: assay number 14; for Hela CellCycMod PI S Phase IC50/EC50: assay number 15; for Hela CellCycMod PI 4N IC50/EC50: assay number 16; for Hela CellCycMod PI MI IC50/EC50: assay number 17; for Hela CellCycMod PI Cell Number IC50/EC50: assay number 18
INS-1E cells [4] = test: cells; assay type: cell-based, rat; conditions: 5 mM glucose; for 5mMGluc_INS1E SecretionMod IC50/EC50: assay number 8
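Throughout, for 5mMGluc INS1E SecretionMod IC50/EC50: secreted insulin quantified by homogeneous immunoassay.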
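Throughout, for IC50/EC50, 5mMGluc INS1E SecretionMod (assay number 8): secreted insulin quantified by homogeneous immunoassay.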

SMILES: [H]/N=C(\N/C(=N/[H])NCCCCCCNC(=N)NC(=N)Nc1ccc(Cl)cc1)Nc1ccc(Cl)cc1 [Chlorhexidine]
- Adjusted Z-Score ([1]; AE OSTEONECROSIS, Drug A with vs without methotrexate): -2.347
- # of Specific AE Occurrence With Drug A With Drug B ([1]; AE OSTEONECROSIS): 31
- # of Specific AE Occurrence With Drug A Without Drug B ([1]; AE OSTEONECROSIS): 899

SMILES: COc1cccc2c1C(=O)c1c(O)c3c(c(O)c1C2=O)C[C@@](O)(C(=O)CO)C[C@@H]3O[C@H]1C[C@H](N)[C@H](O)[C@H](C)O1 [Doxorubicin]
- # of Specific AE Occurrence With Drug A With Drug B ([1]; AE BONE DISORDER): 49
- # of Specific AE Occurrence With Drug A Without Drug B ([1]; AE BONE DISORDER): 912

SMILES: CN(C)CCC=C1c2ccccc2CCc2ccccc21.Cl [NCGC00015095-15]
- IC50/EC50, 0.1mMGluc_INS1E SecretionMod Act (assay number 9) (INS-1E cells [2]): > 33.33 µM
- IC50/EC50, 0.1mMGluc_INS1E FluxOR (assay number 10) [3]: 6.243 µM
- IC50/EC50, Hela CellCycMod PI 2N (assay number 14) (HeLa cells; 2N): > 10 µM
- IC50/EC50, Hela CellCycMod PI 4N (assay number 16) (HeLa cells; 4N): > 10 µM
- IC50/EC50, Hela CellCycMod PI Cell Number (assay number 18) (HeLa cells; Cell Number): > 10 µM
- IC50/EC50, Hela CellCycMod PI MI (assay number 17) (HeLa cells; MI): > 10 µM
- IC50/EC50, Hela CellCycMod PI S Phase (assay number 15) (HeLa cells; S Phase): > 10 µM
- IC50/EC50, 5mMGluc_INS1E SecretionMod (assay number 8) (INS-1E cells [4]): 2.999 µM

SMILES: CCCNCC(O)COc1ccccc1C(=O)CCc1ccccc1 (centres unmarked) [NCGC00015819-15]
- 0.1mMGluc_INS1E SecretionMod Act IC50/EC50 (INS-1E cells [2]): > 33.33 µM
- 0.1mMGluc_INS1E FluxOR IC50/EC50 [3]: 5.346 µM
- Hela CellCycMod PI 2N IC50/EC50 (HeLa cells; 2N): > 10 µM
- Hela CellCycMod PI S Phase IC50/EC50 (HeLa cells): > 10 µM
- Hela CellCycMod PI 4N IC50/EC50 (HeLa cells; 4N): > 10 µM
- Hela CellCycMod PI MI IC50/EC50 (HeLa cells; MI): > 10 µM
- Hela CellCycMod PI Cell Number IC50/EC50 (HeLa cells): > 10 µM
- 5mMGluc_INS1E SecretionMod IC50/EC50 (INS-1E cells [4]): 4.919 µM

SMILES: CCC(=O)c1ccc2c(c1)N(CCCN(C)C)c1ccccc1S2.Cl [NCGC00015838-06]
- 0.1mMGluc_INS1E SecretionMod Act IC50/EC50 (INS-1E cells [2]): > 33.33 µM
- 0.1mMGluc_INS1E FluxOR IC50/EC50 [3]: 25.7434 µM
- 5mMGluc_INS1E SecretionMod IC50/EC50 (INS-1E cells [4]): 10.7311 µM

SMILES: CN(C)CCN(Cc1ccc(Cl)cc1)c1ccccn1 [NCGC00016672-04]
- 0.1mMGluc_INS1E SecretionMod Act IC50/EC50 (INS-1E cells [2]): 16.7904 µM
- 0.1mMGluc_INS1E FluxOR IC50/EC50 [3]: 4.782 µM
- 5mMGluc_INS1E SecretionMod IC50/EC50 (INS-1E cells [4]): 6.1408 µM

SMILES: CN1CCCN(C(c2ccccc2)c2ccc(Cl)cc2)CC1 (centres unmarked) [NCGC00018271-07]
- 0.1mMGluc_INS1E SecretionMod Act IC50/EC50 (INS-1E cells [2]): > 33.33 µM
- 0.1mMGluc_INS1E FluxOR IC50/EC50 [3]: 15.6503 µM
- 5mMGluc_INS1E SecretionMod IC50/EC50 (INS-1E cells [4]): > 3.703 µM

SMILES: CCN(CCCCOC(=O)c1ccc(OC)c(OC)c1)C(C)Cc1ccc(OC)cc1.Cl (centres unmarked) [NCGC00018277-06]
- 0.1mMGluc_INS1E SecretionMod Act IC50/EC50 (INS-1E cells [2]): > 33.33 µM
- 0.1mMGluc_INS1E FluxOR IC50/EC50 [3]: 1.737 µM
- Hela CellCycMod PI 2N IC50/EC50 (HeLa cells; 2N): > 10 µM
- Hela CellCycMod PI S Phase IC50/EC50 (HeLa cells): > 10 µM
- Hela CellCycMod PI 4N IC50/EC50 (HeLa cells; 4N): > 10 µM
- Hela CellCycMod PI MI IC50/EC50 (HeLa cells; MI): > 10 µM
- Hela CellCycMod PI Cell Number IC50/EC50 (HeLa cells): > 10 µM
- 5mMGluc_INS1E SecretionMod IC50/EC50 (INS-1E cells [4]): 1.952 µM

SMILES: CCN(CC)CCOCCOC(=O)C1(c2ccccc2)CCCC1 [NCGC00024595-08]
- 0.1mMGluc_INS1E SecretionMod Act IC50/EC50 (INS-1E cells [2]): > 33.33 µM
- 0.1mMGluc_INS1E FluxOR IC50/EC50 [3]: 4.656 µM
- 5mMGluc_INS1E SecretionMod IC50/EC50 (INS-1E cells [4]): 7.687 µM

SMILES: CN(C)C/C=C(/c1ccc(Br)cc1)c1cccnc1.Cl.Cl.O [NCGC00025286-04]
- 0.1mMGluc_INS1E SecretionMod Act IC50/EC50 (INS-1E cells [2]): > 33.33 µM
- 0.1mMGluc_INS1E FluxOR IC50/EC50 [3]: 27.874 µM
- 5mMGluc_INS1E SecretionMod IC50/EC50 (INS-1E cells [4]): 8.361 µM
